A value given as a limit tells only on which side of the number the result lay.

One may read the DC50 as the concentration at which degradation of the target reaches its halfway point. The Dmax is the largest share of the target that was removed.

One test addresses T1, B-RAF V600E (Homo sapiens, UniProt P15056, V600E).
T1 construct: expressed in transfected cells; host or cells: T-Rex 293 cells (Invitrogen #R71007)
Briefly: Target protein degradation, assay C: T-Rex 293 cells, HA-BRAF_V600E, 384 well format. It is filed as cell-based. The conditions noted are these: T-Rex 293 HA-BRAF_V600E cells, 24 hours, Examples 83-269; for DC50: Assay C; for Dmax: T-REx-293, Assay C. The essentials: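 After 24 h exposure to an 11-point 1:3 series (300 nM–5 pM, 0.5% DMSO), fixed T-Rex 293 cells carrying HA-BRAF V600E (induced with 1 ng/mL doxycycline) were stained anti-HA and imaged. DC50 and Dmax were derived from BRAF intensity relative to control, and cytotoxicity from nuclear counts.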

For a further test, the target named is T2, B-RAF G466V (Homo sapiens, UniProt P15056, G466V).
T2 construct: expressed in transfected cells; host or cells: T-Rex 293 cells (Invitrogen #R71007)
T2 sequence (P15056 whole entry G466V): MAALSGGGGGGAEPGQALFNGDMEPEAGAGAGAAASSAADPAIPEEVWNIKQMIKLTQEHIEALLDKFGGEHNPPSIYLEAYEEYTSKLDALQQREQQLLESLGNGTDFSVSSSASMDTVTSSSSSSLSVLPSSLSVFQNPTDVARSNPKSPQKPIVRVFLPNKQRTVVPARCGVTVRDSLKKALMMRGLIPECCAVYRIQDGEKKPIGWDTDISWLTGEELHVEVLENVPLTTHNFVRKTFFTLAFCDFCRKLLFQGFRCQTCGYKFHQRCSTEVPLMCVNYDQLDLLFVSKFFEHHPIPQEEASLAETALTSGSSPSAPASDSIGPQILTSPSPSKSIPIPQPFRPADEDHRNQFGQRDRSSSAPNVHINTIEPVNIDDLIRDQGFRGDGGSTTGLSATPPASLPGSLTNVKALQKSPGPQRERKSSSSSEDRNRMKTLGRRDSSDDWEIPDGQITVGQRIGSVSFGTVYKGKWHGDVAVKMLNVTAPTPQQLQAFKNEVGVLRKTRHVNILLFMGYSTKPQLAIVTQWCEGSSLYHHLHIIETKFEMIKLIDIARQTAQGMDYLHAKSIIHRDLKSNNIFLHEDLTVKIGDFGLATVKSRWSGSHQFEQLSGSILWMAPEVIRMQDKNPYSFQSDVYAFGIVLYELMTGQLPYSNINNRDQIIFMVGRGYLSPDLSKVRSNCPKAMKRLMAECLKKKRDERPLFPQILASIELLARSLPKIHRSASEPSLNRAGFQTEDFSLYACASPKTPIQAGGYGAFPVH
Briefly: Target protein degradation, assay D: T-Rex 293 cells, HA-BRAF_G466V, 384 well format. Type of test: cell-based. The conditions noted are these: T-Rex 293 HA-BRAF_G466V cells, 24 hours, Examples 83-269; for DC50: Assay D; for Dmax: T-REx-293, Assay D. A digest of the protocol: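 Degradation measured by high-content imaging of anti-HA immunofluorescence in fixed T-Rex 293 cells carrying inducible HA-BRAF G466V (1 ng/mL doxycycline), after 24 h PROTAC exposure at 37 °C over 300 nM–5 pM (1:3, 11 points, 0.5% DMSO). Outputs DC50 and Dmax as % of control; nuclei counts against DMSO wells gauge toxicity.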

T1 sequence (P15056 whole entry V600E): as the sequence (P15056 whole entry G466V) above, with V466G, V600E counted along it

On to `N#Cc1c(NS(=O)(=O)N2CC[C@@H](F)C2)ccc(F)c1Oc1ccc2ncn(-c3ccc(N4CCC5(CC4)CC(OC4CCN(c6ccc7c(c6)CN([C@H]6CCC(=O)NC6=O)C7=O)CC4)C5)cc3)c(=O)c2c1` [Example 250, (3R)—N-(2-cyano-3-{[3-(4-{2-[(1-{2-[(3S)-2,6-dioxopiperidin-3-yl]-1-oxo-2,3-dihydro-1H-isoindol-5-yl}piperidin-4-yl)oxy]-7-azaspiro[3.5]nonan-7-yl}phenyl)-4-oxo-3,4-dihydroquinazolin-6-yl]oxy}-4-fluorophenyl)-3-fluoropyrrolidine-1-sulfonamide], for which, on B-RAF V600E, the DC50 lay in the range of 50 to 500 nM and the Dmax lay within 35 to 70%. Moreover, at B-RAF G466V, the DC50 lay within 1 to 10 nM and the Dmax was 35 to 70%.

As for `N#Cc1c(NS(=O)(=O)N2CC[C@@H](F)C2)ccc(F)c1Oc1ccc2ncn(-c3ccc(N4CCN([C@H]5C[C@H](OC6CCN(c7ccc8c(c7)CN(C7CCC(=O)NC7=O)C8=O)CC6)C5)CC4)cc3)c(=O)c2c1` (stereo partly drawn) [Example 251, (3R)-N-(2-cyano-4-fluoro-3-{[4-oxo-3-(4-(4-[(1r,3r)-3-({1-[2-(2,6-dioxopiperidin-3-yl)-1-oxo-2,3-dihydro-1H-isoindol-5-yl]piperidin-4-yl}oxy)cyclobutyl]piperazin-1-yl}phenyl)-3,4-dihydroquinazolin-6-yl]oxy}phenyl)-3-fluoropyrrolidine-1-sulfonamide], at B-RAF V600E, the DC50 was in the range of 50 to 500 nM and the Dmax was 35 to 70%. At B-RAF G466V, this compound showed a DC50 of 1 to 10 nM and a Dmax of 35 to 70%.

In the case of `N#Cc1c(NS(=O)(=O)N2CC[C@@H](F)C2)ccc(F)c1Oc1ccc2ncn(-c3ccc(N4CCC5(CC4)CC(OC4CCN(c6ccc7c(c6)CN([C@@H]6CCC(=O)NC6=O)C7=O)CC4)C5)cc3)c(=O)c2c1` [Example 252, (3R)-N-(2-cyano-3-{[3-(4-{2-[(1-{2-[(3R)-2,6-dioxopiperidin-3-yl]-1-oxo-2,3-dihydro-1H-isoindol-5-yl}piperidin-4-yl)oxy]-7-azaspiro[3.5]nonan-7-yl}phenyl)-4-oxo-3,4-dihydroquinazolin-6-yl]oxy}-4-fluorophenyl)-3-fluoropyrrolidine-1-sulfonamide], at B-RAF V600E, the DC50 fell in the range of 5 to 50 nM and the Dmax is no more than 35%. At B-RAF G466V, the DC50 was in the range of 1 to 10 nM and the Dmax was 35 to 70%.

On B-RAF V600E, `N#Cc1c(NS(=O)(=O)N2CC[C@@H](F)C2)ccc(F)c1Oc1ccc2ncn(-c3ccc(N4CCC(O[C@H]5C[C@H](N6CCC(c7ccc8c(c7)CN(C7CCC(=O)NC7=O)C8=O)CC6)C5)CC4)cc3)c(=O)c2c1` (stereo partly drawn) [Example 253, (3R)-N-(2-cyano-4-fluoro-3-{[4-oxo-3-(4-{4-[(1r,3r)-3-{4-[2-(2,6-dioxopiperidin-3-yl)-1-oxo-2,3-dihydro-1H-isoindol-5-yl]piperidin-1-yl}cyclobutoxy]piperidin-1-yl}phenyl)-3,4-dihydroquinazolin-6-yl]oxy}phenyl)-3-fluoropyrrolidine-1-sulfonamide] gave a 50% degradation concentration (DC50) of 50 to 500 nM and a Dmax of 35 to 70%. On B-RAF G466V, this compound displayed a DC50 of 1 to 10 nM and a Dmax of 35 to 70%.

At B-RAF V600E, `N#Cc1c(NS(=O)(=O)N2CC[C@@H](F)C2)ccc(F)c1Oc1ccc2ncn(-c3cccc(N4CCN(CC5CN(c6ccc7c(c6)CN([C@H]6CCC(=O)NC6=O)C7=O)C5)CC4)c3)c(=O)c2c1` [Example 254, (3R)-N-(2-cyano-3-{[3-(3-{4-[(1-{2-[(3S)-2,6-dioxopiperidin-3-yl]-1-oxo-2,3-dihydro-1H-isoindol-5-yl}azetidin-3-yl)methyl]piperazin-1-yl}phenyl)-4-oxo-3,4-dihydroquinazolin-6-yl]oxy}-4-fluorophenyl)-3-fluoropyrrolidine-1-sulfonamide] displayed a 50% degradation concentration (DC50) of 50 to 500 nM and a Dmax of 35 to 70%. At B-RAF G466V, the DC50 was in the range of 1 to 10 nM and the Dmax is no less than 70%.

These data come from US11957759B1, “Rapidly accelerated fibrosarcoma (RAF) degrading compounds and associated methods of use” (Arvinas Operations, Inc., priority 2022, dated 2024).
